Reference: US20180353457A1, “ABIETANE DITERPENOID 7-ACETOXYROYLEANONES FOR USE IN CANCER TREATMENT” (University of South Carolina, priority 2017, published 2018)

Columns and labels:
[1] = system: HCT 116/200 (FdUrd resistant subclone of HCT 116) cells; experiment: MTS cytotoxicity assay, HCT 116/200; assay type: cell-based; conditions: HCT 116/200 cells
Excerpt: Human cell lines used included MG-63 (osteosarcoma), SK-OV-3 (ovarian adenocarcinoma), MDA-MB-231 (breast adenocarcinoma derived from a metastatic site), HCT 116 (colorectal carcinoma), HCT 116/200 (an FdUrd resistant subclone of HCT 116 cells), and A2780ADR (a doxorubicin resistant subclone of the ovarian carcinoma A2780). All cells were stored in liquid nitrogen until use. MG-63, SK-OV-3, MDA-MB-231, and HCT 116 cell lines were all obtained from ATCC. A2780ADR cells were obtained from Sigma-Aldrich. HCT 116/200 cells were obtained from Dr. Franklin G. Berger from the Center for Colon Cancer Research. MG-63 cells were maintained in MEM medium (Corning) supplemented with 10% Fetal Bovine Essence (VWR) and 1% penicillin/streptomycin solution (Corning). SK-OV-3 cells were maintained in McCoy's 5A Medium (Sigma) supplemented with Fetal Bovine Essence and 1% penicillin/streptomycin. […]
Cells were first grown to approximately 80% confluency within […] tissue culture flasks (VWR). […] Cells were counted using a hemocytometer and their viability was confirmed using trypan blue (Gibco). […]
In combination studies, 7-acetoxyroyleanone and FdUrd were first mixed into the same media and then added to the cells. […] The cells were incubated for 2 hours, and the absorbance of each well at 490 nm was measured using a Spectramax 190 microplate reader.

[2] = system: HCC-2996 (colon cancer) cells; experiment: NCI-60 five dose screen, HCC-2996
[3] = HCC-2996, most sensitive cell line to growth inhibition

## CC(=O)O[C@@H]1C[C@H]2C(C)(C)CCC[C@]2(C)C2=C1C(=O)C(C(C)C)=C(O)C2=O [7-acetoxyroyleanone]
[1]; 48 and 72 hours of exposure
  cytotoxicity (percent viability): significant cytotoxic properties
[1]; 48 hour exposure, combined with 1 μg/mL FdUrd
  cytotoxic effect in combination with FdUrd (percent viability, cell number): synergistic cytotoxic effect
[2]; [3]
  GI50: 405 nM
  TGI: 1620 nM
[2]; read-out: LC50, HCC-2996, Colon
  CC50: 6410 nM
